# In ChEMBL document CHEMBL1201862, “PubChem BioAssay data set” (2004):
# Where “and” joins values, the source holds several entries; their conditions need not be identical. Equal values may be shown once. Calls of active or inactive are those of the source.
# Experiments:
# Estrogen receptor = target: T1, Estrogen receptor (Homo sapiens, UniProt P03372);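 further: potency for inhibiting coactivator peptide recruitment to the receptor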
# T1 sequence (P03372 whole entry): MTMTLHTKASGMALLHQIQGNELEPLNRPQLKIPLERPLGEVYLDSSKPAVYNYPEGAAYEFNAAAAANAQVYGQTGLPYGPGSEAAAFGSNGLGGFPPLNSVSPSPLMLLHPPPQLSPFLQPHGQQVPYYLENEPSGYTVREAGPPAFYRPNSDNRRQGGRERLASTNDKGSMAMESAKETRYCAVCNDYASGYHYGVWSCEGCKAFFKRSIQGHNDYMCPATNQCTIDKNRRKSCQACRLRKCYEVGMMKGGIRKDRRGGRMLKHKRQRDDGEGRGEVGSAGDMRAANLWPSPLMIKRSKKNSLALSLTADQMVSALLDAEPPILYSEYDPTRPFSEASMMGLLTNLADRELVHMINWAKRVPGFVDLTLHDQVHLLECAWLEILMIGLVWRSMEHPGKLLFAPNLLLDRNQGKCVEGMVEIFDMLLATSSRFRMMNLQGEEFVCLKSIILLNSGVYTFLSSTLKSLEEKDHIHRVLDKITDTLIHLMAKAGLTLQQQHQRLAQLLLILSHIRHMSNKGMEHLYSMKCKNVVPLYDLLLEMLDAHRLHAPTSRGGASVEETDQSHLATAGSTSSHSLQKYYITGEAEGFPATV
# Estrogen receptor beta [1] = target: T2, Estrogen receptor beta (Homo sapiens, UniProt Q92731);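 further: recombinant ER-beta bound to coactivator SRC1 peptide in presence of estradiol agonist; inhibitors block coactivator peptide binding and lower the FRET signal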
# T2 sequence (Q92731 whole entry): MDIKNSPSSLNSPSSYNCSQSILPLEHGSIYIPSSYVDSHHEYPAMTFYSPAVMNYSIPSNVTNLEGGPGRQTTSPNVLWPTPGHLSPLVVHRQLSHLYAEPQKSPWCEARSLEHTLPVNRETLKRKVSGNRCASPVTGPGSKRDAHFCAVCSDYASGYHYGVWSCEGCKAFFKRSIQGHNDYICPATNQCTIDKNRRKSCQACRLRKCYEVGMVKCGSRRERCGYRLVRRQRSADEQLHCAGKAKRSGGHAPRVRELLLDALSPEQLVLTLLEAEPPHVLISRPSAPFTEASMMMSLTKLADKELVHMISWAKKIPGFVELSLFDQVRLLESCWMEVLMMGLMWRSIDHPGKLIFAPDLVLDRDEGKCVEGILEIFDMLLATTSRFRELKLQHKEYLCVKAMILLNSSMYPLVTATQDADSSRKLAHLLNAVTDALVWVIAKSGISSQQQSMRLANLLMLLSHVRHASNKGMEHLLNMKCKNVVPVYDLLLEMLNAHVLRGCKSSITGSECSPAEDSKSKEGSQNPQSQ
# Estrogen receptor beta [2] = target: T2, Estrogen receptor beta; assay: blockers of SRC-3 recruitment to ERβ – biochemical, ELISA, streptavidin-HRP readout, orthogonal assay, confirmation (AID 1060)
# [3] = target: Low molecular weight phosphotyrosine protein phosphatase (Homo sapiens, UniProt P24666); assay type: functional; settings: read-out: IC50_Mean;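 further: Dose-response confirmation assay measuring inhibition of LMPTP enzyme activity by fluorescence intensity read-out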
# Low molecular weight phosphotyrosine protein phosphatase, sequence (P24666 whole entry): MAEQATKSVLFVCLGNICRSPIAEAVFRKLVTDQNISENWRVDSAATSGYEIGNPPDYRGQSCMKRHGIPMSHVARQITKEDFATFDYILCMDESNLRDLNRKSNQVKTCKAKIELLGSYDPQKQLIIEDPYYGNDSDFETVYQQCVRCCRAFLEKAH
# [4] = target: T3, Histone-lysine N-methyltransferase NSD2 (Homo sapiens, UniProt O96028); assay type: biochemical
# T3 sequence (O96028 whole entry): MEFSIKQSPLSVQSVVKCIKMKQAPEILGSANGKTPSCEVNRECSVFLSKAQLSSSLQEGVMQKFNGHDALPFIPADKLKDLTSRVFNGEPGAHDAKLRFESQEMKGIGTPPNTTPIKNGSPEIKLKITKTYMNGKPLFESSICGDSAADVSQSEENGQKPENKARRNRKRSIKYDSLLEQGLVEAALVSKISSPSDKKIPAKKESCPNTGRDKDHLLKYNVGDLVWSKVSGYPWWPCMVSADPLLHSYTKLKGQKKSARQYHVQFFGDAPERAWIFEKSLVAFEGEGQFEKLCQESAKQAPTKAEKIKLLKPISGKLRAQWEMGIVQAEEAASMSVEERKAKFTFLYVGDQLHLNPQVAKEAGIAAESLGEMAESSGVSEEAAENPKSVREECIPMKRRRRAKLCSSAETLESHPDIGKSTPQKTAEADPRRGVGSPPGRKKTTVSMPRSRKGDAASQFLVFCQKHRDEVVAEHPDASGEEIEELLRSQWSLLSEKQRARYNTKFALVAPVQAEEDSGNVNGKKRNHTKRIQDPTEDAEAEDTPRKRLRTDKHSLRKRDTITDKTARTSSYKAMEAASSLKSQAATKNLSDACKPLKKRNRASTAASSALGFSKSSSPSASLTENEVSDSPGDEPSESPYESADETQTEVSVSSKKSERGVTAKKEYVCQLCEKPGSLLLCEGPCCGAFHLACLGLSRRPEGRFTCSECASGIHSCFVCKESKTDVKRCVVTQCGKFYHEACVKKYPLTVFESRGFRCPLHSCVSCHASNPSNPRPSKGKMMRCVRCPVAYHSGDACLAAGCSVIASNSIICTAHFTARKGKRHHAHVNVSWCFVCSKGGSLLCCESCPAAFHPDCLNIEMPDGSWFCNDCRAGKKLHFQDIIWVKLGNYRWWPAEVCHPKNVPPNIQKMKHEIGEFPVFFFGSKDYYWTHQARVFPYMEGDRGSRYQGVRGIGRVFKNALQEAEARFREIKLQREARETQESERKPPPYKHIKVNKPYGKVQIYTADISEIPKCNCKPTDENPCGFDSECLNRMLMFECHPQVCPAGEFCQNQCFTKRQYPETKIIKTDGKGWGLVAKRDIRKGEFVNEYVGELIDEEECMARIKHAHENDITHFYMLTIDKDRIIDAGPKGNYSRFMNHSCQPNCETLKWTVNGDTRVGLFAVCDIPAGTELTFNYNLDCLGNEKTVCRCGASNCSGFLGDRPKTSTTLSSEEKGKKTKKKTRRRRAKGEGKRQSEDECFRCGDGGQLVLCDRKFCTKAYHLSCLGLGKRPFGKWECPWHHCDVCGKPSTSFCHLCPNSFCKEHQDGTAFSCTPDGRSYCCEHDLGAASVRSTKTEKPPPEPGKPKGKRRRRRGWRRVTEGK
# Insulin-degrading enzyme [5] = target: T4, Insulin-degrading enzyme (Homo sapiens, UniProt P14735); assay: recombinant IDE activation, cell-free – biochemical, fluorescence polarization, counter-screen for IDE activator project, dose response (AID 588681)
# T4 sequence (P14735 whole entry): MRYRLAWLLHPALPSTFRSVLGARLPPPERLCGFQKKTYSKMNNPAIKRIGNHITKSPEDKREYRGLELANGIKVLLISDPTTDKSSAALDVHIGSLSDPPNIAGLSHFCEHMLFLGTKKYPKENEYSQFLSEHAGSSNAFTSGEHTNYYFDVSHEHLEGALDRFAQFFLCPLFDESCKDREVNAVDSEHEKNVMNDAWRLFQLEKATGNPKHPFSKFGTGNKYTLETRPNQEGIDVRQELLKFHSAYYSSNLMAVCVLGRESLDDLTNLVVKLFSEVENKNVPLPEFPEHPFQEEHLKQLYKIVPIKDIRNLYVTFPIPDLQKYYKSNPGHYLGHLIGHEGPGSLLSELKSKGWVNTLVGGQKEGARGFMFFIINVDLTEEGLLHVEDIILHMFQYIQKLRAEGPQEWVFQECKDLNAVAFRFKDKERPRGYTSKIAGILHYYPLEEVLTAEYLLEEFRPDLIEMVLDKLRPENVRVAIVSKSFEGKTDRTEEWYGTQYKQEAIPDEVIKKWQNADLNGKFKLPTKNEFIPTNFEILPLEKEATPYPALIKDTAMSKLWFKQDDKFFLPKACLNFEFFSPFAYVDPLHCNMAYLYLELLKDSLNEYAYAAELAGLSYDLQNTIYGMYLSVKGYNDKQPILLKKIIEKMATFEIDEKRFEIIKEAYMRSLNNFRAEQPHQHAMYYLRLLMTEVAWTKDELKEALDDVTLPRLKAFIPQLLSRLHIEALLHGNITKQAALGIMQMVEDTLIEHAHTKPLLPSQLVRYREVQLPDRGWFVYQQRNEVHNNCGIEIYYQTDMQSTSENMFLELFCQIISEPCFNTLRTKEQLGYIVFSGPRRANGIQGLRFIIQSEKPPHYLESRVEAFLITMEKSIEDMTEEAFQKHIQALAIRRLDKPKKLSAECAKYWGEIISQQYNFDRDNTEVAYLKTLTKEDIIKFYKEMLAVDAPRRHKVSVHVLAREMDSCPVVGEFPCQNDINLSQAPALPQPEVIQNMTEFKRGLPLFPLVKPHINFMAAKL
# Insulin-degrading enzyme [6] = target: T4, Insulin-degrading enzyme; assay: cellular IDE activation of Abeta substrate cleavage – fluorescence polarization, HEK cells, dose response (AID 588439); assay type: functional, cell-based
# HEK293 [7] = assay: membrane integrity loss in HEK cells – cell-based, fluorescence, cytotoxicity control for IDE activator project, dose response (AID 588440); assay type: functional; settings: Homo sapiens;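 further: cytotoxicity by LDH release measuring loss of membrane integrity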
# HEK293 [8] = assay: optical interference in Abeta FP readout, dose response, artefact control for IDE activator project, biochemical, fluorescence polarization (AID 588442); assay type: functional, cell-based; settings: Homo sapiens
# [9] = viability of uninfected HEp-2 cells – cell-based, HTS, cytotoxicity control for RSV inhibitor project, dose response (AID 2410); assay type: functional; settings: human respiratory syncytial virus
# Vero [10] = assay: cells; assay type: functional, cell-based; settings: Chlorocebus sabaeus
# Vero [11] = assay: cells; assay type: functional; settings: Chlorocebus sabaeus
# SUMO E1/E2 = SUMO E1/E2 (Homo sapiens, UniProt P63279+Q9UBE0+Q9UBT2); assay: SAR analysis of SUMOylation using HTRF in an in-Vitro dose response assay. [Related pubchem assays (depositor defined):AID2006, AID2011, AID2018, AID2069, AID2658]; assay type: functional
# SUMO E1/E2, sequence (Q9UBE0 whole entry): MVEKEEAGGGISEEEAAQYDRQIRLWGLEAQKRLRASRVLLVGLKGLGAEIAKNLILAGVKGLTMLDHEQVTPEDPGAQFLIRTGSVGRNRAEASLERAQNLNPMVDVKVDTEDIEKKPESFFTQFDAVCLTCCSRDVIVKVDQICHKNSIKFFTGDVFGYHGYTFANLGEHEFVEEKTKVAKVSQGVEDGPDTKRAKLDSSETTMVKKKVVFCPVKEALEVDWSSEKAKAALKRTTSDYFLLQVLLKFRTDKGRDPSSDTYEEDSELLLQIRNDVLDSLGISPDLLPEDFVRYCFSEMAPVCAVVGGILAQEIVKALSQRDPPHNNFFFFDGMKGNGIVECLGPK
# SUMO E1/E2, sequence (Q9UBT2 whole entry): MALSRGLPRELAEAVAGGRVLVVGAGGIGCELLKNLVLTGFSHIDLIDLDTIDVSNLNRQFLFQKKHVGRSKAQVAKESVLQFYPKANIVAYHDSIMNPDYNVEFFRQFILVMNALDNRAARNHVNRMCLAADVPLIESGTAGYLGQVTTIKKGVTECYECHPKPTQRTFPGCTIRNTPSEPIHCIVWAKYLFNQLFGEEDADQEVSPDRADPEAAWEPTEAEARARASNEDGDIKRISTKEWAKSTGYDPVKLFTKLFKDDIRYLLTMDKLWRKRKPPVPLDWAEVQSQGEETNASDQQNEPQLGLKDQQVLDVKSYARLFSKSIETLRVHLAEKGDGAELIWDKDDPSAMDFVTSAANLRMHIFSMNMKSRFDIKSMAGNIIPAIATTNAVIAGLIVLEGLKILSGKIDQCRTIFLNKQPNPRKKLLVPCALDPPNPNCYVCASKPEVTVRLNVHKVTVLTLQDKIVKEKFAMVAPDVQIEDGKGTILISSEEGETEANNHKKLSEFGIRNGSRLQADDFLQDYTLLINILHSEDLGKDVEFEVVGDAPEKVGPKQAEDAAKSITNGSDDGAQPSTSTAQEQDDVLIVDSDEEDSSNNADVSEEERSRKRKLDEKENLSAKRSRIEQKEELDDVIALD
# SUMO E1/E2, sequence (P63279 whole entry): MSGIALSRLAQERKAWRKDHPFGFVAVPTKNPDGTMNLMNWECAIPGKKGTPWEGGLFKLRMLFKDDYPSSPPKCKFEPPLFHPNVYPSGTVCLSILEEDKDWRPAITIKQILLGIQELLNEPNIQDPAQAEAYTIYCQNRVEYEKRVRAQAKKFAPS
# [12] = target: T5, Voltage-gated N-type calcium channel alpha-1B subunit/Amyloid beta A4 precursor protein-binding family A member 1 (Homo sapiens, UniProt Q00975+Q02410); assay: disruptors of Mint-PDZ/N-type channel peptide interaction – biochemical, HTRF, set 2, SAR follow-up (AID 434980); assay type: functional
# T5 sequence (Q00975 whole entry): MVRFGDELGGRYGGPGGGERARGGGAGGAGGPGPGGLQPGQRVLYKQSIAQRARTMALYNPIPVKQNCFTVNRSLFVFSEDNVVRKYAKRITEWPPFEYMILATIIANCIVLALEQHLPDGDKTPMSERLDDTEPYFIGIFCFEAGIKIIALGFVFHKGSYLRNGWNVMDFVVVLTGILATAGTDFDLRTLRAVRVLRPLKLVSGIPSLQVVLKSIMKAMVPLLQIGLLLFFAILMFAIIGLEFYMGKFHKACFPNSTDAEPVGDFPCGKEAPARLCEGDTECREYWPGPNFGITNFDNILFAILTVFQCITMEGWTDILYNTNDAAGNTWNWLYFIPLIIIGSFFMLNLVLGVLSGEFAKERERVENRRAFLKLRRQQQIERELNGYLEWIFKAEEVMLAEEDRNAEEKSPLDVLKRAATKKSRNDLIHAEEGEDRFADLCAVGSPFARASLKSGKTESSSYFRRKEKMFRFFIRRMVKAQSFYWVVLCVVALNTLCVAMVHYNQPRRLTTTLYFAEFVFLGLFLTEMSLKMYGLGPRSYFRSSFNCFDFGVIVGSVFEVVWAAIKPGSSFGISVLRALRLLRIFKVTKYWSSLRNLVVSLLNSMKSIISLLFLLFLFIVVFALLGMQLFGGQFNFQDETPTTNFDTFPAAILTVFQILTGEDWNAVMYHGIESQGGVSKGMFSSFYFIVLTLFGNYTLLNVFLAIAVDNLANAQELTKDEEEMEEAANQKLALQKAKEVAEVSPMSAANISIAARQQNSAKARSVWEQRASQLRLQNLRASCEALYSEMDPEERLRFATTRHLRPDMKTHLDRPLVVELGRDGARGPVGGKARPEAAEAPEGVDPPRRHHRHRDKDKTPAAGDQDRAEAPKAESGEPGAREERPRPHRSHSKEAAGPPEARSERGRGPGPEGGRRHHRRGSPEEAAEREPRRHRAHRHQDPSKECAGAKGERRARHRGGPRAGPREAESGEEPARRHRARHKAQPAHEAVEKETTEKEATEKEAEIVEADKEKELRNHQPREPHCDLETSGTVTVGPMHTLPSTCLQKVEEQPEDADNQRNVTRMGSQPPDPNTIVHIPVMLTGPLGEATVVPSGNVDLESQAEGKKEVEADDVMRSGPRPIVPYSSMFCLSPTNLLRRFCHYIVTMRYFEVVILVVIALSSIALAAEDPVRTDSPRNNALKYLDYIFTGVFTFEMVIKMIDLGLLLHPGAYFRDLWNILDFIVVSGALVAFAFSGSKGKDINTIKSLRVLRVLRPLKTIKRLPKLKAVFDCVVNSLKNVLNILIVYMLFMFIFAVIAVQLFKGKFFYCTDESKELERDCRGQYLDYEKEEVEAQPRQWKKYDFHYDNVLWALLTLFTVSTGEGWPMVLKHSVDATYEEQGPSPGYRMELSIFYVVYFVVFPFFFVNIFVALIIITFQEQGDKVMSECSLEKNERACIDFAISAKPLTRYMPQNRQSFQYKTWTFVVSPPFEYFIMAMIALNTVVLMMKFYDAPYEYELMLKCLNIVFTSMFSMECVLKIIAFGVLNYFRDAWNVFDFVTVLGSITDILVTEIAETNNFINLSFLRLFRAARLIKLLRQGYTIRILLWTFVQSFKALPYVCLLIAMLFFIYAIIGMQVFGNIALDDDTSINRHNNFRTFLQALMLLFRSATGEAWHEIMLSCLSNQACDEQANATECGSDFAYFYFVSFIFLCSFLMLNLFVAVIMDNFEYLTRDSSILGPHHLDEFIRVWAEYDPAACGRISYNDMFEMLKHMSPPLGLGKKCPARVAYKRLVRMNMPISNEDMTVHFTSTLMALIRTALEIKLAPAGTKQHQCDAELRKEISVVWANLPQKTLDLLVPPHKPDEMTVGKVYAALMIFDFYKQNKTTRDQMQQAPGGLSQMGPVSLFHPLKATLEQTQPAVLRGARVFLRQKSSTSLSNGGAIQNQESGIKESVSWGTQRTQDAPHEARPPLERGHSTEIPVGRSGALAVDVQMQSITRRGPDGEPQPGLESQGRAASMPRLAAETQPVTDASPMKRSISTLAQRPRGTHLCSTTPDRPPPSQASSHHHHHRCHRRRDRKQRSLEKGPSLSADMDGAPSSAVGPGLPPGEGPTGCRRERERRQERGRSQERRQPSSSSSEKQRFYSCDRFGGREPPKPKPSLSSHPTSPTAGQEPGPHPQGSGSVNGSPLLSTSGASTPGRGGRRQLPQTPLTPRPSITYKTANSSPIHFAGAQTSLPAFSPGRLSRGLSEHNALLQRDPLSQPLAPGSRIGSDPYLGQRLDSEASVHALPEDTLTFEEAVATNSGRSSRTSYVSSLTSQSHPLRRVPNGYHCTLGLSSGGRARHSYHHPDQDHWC
# T5 sequence (Q02410 whole entry): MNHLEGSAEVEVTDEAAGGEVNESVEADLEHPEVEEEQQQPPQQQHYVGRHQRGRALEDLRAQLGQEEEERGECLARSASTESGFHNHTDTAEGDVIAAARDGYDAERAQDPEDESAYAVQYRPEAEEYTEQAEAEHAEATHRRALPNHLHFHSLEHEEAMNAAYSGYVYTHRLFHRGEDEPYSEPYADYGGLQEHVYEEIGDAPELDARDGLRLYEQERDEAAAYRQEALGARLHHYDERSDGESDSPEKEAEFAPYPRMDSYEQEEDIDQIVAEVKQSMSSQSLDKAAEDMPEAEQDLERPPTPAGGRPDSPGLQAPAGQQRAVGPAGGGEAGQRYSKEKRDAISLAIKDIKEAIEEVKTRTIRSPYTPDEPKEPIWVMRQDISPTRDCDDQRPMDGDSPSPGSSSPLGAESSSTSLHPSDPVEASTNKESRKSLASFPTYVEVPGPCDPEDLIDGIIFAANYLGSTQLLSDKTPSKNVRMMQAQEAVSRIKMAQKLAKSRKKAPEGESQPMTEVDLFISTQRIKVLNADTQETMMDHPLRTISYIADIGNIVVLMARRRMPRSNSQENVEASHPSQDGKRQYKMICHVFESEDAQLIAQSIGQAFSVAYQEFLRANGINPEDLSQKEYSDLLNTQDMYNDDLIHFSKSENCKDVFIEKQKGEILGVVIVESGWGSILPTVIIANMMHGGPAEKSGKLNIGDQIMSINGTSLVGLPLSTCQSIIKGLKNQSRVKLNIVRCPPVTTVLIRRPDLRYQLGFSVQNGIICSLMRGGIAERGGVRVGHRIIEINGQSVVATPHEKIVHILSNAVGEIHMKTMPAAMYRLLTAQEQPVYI
# [13] = target: T5, Voltage-gated N-type calcium channel alpha-1B subunit/Amyloid beta A4 precursor protein-binding family A member 1; assay: disruptors of Mint-PDZ/N-type channel peptide interaction – biochemical, HTRF, SAR follow-up (AID 2489); assay type: functional
# [14] = target: Potassium voltage-gated channel subfamily KQT member 2 (Rattus norvegicus, UniProt O88943); assay: blockers of KCNQ2 channel current – cell-based, automated electrophysiology, set II, rat KCNQ2, dose response (AID 588637); assay type: functional
# [15] = target: T6, Carboxy-terminal domain RNA polymerase II polypeptide A small phosphatase 1 (Homo sapiens, UniProt Q9GZU7); assay: CTDSP1 inhibitors, concentration-response, biochemical, absorbance readout, ultra-high-throughput screen actives (AID 540297); assay type: functional
# T6 sequence (Q9GZU7 whole entry): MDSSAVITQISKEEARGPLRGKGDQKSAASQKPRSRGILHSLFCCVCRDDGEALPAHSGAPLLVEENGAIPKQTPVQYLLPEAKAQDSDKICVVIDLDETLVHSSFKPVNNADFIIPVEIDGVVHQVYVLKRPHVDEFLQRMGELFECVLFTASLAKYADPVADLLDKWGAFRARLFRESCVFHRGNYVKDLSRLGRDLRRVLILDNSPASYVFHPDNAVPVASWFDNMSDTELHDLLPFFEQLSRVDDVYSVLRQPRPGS
# [16] = target: T7, Apoptotic protease-activating factor 1 (Homo sapiens, UniProt O14727); assay: SAR analysis of small molecule Activators of Apaf-1 in a Fluorescent assay.; assay type: functional; settings: read-out: EC50_Mean;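 further: caspase-3 cleavage of fluorogenic Rh110 DEVD substrate downstream of apoptosome activation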
# T7 sequence (O14727 whole entry): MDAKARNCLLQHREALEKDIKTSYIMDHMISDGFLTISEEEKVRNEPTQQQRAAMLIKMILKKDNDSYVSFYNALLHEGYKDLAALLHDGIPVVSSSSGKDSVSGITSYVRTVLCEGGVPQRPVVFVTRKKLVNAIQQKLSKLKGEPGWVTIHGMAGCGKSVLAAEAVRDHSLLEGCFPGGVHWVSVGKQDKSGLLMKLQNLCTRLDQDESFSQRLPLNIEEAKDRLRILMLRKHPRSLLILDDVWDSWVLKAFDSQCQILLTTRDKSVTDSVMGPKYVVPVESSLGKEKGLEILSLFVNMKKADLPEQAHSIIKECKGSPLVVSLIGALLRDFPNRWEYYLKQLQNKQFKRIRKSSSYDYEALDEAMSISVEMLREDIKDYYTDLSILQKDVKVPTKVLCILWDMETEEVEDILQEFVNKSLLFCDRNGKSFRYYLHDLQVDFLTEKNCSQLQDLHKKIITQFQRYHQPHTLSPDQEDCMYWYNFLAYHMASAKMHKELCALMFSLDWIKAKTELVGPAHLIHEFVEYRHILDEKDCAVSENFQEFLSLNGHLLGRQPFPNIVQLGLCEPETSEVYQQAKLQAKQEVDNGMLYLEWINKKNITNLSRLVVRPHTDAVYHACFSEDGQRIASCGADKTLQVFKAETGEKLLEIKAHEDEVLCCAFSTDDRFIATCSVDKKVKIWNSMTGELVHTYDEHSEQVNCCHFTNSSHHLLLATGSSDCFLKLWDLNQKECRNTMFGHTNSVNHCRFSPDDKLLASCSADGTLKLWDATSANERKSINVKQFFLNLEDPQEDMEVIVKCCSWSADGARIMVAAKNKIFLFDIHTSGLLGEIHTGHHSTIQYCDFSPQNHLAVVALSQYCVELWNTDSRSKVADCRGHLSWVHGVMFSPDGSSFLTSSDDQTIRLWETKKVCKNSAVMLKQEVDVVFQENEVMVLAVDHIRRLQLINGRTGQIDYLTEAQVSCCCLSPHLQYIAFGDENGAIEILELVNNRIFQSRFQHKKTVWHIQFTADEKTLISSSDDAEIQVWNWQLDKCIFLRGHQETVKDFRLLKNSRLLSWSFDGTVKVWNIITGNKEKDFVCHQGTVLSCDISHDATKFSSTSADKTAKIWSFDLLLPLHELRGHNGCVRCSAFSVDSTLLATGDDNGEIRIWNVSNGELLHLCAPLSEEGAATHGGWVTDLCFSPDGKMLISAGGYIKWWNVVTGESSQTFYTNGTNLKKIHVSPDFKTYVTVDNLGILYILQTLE
# Activin receptor type-1 = Activin receptor type-1 (Homo sapiens, UniProt Q04771); assay: Navigating the Kinome. Panel member name: ACVR1; assay type: functional
smiles,measurement,setting,value
CCN(c1ccccc1)S(=O)(=O)c1cc(C(=O)O)ccc1C,IC50,Estrogen receptor,13.1 µM (active)
same,IC50,Estrogen receptor beta [1],6.12 µM (active)
same,IC50,Estrogen receptor beta [2],1.83 µM (not active)
same,IC50,[3],21 µM (inactive)
same,AC50,[4],9.26 µM (active)
CCc1nnc(NS(=O)(=O)c2ccc(N/C=C3/C(=O)NC(=O)N(c4ccc(Cl)cc4)C3=O)cc2)s1,EC50,Insulin-degrading enzyme [5],> 54.7 µM (inactive)
same,EC50,Insulin-degrading enzyme [6],> 54.7 µM (inactive)
same,IC50,HEK293 [7],> 89.2 µM (inactive)
same,EC50,HEK293 [8],> 54.7 µM (inactive)
O=C(O)c1ccccc1Nc1ccc([N+](=O)[O-])cc1,CC50,[9],8.65 µM (active)
same,EC50,Insulin-degrading enzyme [5],14 µM (inactive)
same,IC50,Vero [10],8.6 µM (active)
same,EC50,Insulin-degrading enzyme [6],7.99 µM (active)
same,CC50,Vero [11],> 25 µM (active)
same,IC50,HEK293 [7],> 89.1 µM (inactive)
same,EC50,HEK293 [8],6.88 µM (active)
same,IC50,cells,2.4 µM (active)
COc1ccc(CCNC(=O)c2cc(-c3ccco3)nc3ccccc23)cc1,IC50,SUMO E1/E2,16.5 µM (active)
same,IC50,[12],12.8 µM (active) and > 56.8 µM (inactive)
same,IC50,[13],17.3 µM (active) and > 56.8 µM (inactive)
same,IC50,[14],4.08 µM (active)
same,IC50,[15],4.22 µM (active)
CC(Cc1ccc2c(c1)OCO2)C(=O)O (centres undefined),EC50,[16],> 100 µM (inactive)
O=C1Cc2c([nH]c3ccc([N+](=O)[O-])cc23)-c2ccccc2N1 [ALSTERPAULLONE],Ki,Activin receptor type-1,0.0631 µM (active)
